In patent US5610003A, “Two-equivalent magenta photographic couplers with activity-modifying ballasting groups” (Eastman Kodak Company, priority 1995, dated 1997):

Key:
[1] = Taft steric parameter Es of sterically hindering group; assay type: physicochemical; parameters: key: Taft steric parameter Es, referenced to H = 0 (more negative = bulkier)
Source text: Y is a monovalent organic group which sterically hinders leuco dye formation. The sterically hindering group is characterizedby a negative Es value greater than the absolute value of -1.5 and more preferably greater than the absolute value of -2.0. The Es value refers to the Taft steric parameter, referenced to H=O and defined as: […]
where k refers to the rate constant for the acid hydrolysis of esters of the type X--CH2 COOR and 1.24 is the hydrolysis rate of formate. A detailed description of this parameter is provided by S. H. Unger and C. Hansch, Prog. Phys. Org. Chem., 12, 91 (1976).

π value of R^4 group = assay type: physicochemical; parameters: key: π from partition coefficients of derivative (Px) vs parent (PH); details: substituent R^4
Description: R^4 is a monovalent organic group with a π value of at least 2.1. As used herein, the π value is determined by the equation: […]
where Px is the partition coefficient of a derivative and PH is the partition coefficient of the parent compound. A detailed description of the determination of the π value is provided by A. Leo, C. Hansch and D. Elkins, Chem. Rev., 71, 525 (1971).

Structure (SMILES)	Es Value for Sterically Hindering Group [1]	π Value for R^4 (π value of R^4 group)
CCCCCCC(Oc1ccc(C(C)(C)CC(C)(C)C)cc1C(C)(C)CC(C)(C)C)C(=O)NC1=NN(c2c(Cl)cc(Cl)cc2Cl)C(=O)C1n1cccn1 (stereo not drawn) [Example 1]	-2.6	3.2
CCCCCCCCC(Oc1ccc(C(C)(C)CC(C)(C)C)cc1C(C)(C)CC(C)(C)C)C(=O)NC1=NN(c2c(Cl)cc(Cl)cc2Cl)C(=O)C1n1cccn1 (stereo not drawn) [Example 2]	-2.6	4.3
CCCCCCCCCCCCC(Oc1ccc(C(C)(C)CC(C)(C)C)cc1C(C)(C)CC(C)(C)C)C(=O)NC1=NN(c2c(Cl)cc(Cl)cc2Cl)C(=O)C1n1cccn1 (stereo not drawn) [Example 3]	-2.6	6.5
CCCCC(Oc1ccc(C(C)(C)CC)cc1C(C)(C)CC)C(=O)NC1=NN(c2c(Cl)cc(Cl)cc2Cl)C(=O)C1n1cccn1 (stereo not drawn) [Example 4]	-3.0	2.1
CCCCCCC(Oc1ccc(C(C)(C)CC)cc1C(C)(C)CC)C(=O)NC1=NN(c2c(Cl)cc(Cl)cc2Cl)C(=O)C1n1cccn1 (stereo not drawn) [Example 5]	-3.0	3.2
CCCCCCCCC(Oc1ccc(C(C)(C)CC)cc1C(C)(C)CC)C(=O)NC1=NN(c2c(Cl)cc(Cl)cc2Cl)C(=O)C1n1cccn1 (stereo not drawn) [Example 6]	-3.0	4.3
CCCCCCCCCCCCC(Oc1ccc(C(C)(C)CC)cc1C(C)(C)CC)C(=O)NC1=NN(c2c(Cl)cc(Cl)cc2Cl)C(=O)C1n1cccn1 (stereo not drawn) [Example 7]	-3.0	6.5
CCCCCCCCCCCCCCCCC(Oc1ccc(C(C)(C)CC)cc1C(C)(C)CC)C(=O)NC1=NN(c2c(Cl)cc(Cl)cc2Cl)C(=O)C1n1cccn1 (stereo not drawn) [Example 8]	-3.0	8.6
CCCCCCC(Oc1cc2c(cc1C(C)(C)CC(C)(C)C)OC(C)(C)CC2(C)C)C(=O)NC1=NN(c2c(Cl)cc(Cl)cc2Cl)C(=O)C1n1cccn1 (stereo not drawn) [Example 9]	-2.6	4.3
CCCCCCCCCCCCC(Oc1ccc(CCCCC)cc1CCCCC)C(=O)NC1=NN(c2c(Cl)cc(Cl)cc2Cl)C(=O)C1n1cccn1 (stereo not drawn) [Example 10]	-1.6	6.5
CCCCCCCCCCCCC(Oc1cc(C(C)(C)C)cc(C(C)(C)C)c1)C(=O)NC1=NN(c2c(Cl)cc(Cl)cc2Cl)C(=O)C1n1cccn1 (stereo not drawn) [Example 11]	-2.8	6.5
CCC(C)(C)c1ccc(Oc2ccc([N+](=O)[O-])cc2C(=O)NC2=NN(c3c(Cl)cc(Cl)cc3Cl)C(=O)C2n2cccn2)c(C(C)(C)CC)c1 (stereo not drawn) [Example 12]	-3.0	–
CCCCCCCCCCCC(=O)Nc1ccc(Oc2ccc(C(C)(C)CC)cc2C(C)(C)CC)c(C(=O)NC2=NN(c3c(Cl)cc(Cl)cc3Cl)C(=O)C2n2cccn2)c1 (stereo not drawn) [Example 13]	-3.0	–
CCCCCCCCCCC(Oc1ccc(S(=O)(=O)c2ccc(OCc3ccccc3)cc2)cc1)C(=O)Nc1ccc(Oc2ccc(C(C)(C)CC)cc2C(C)(C)CC)c(C(=O)NC2=NN(c3c(Cl)cc(Cl)cc3Cl)C(=O)C2n2cccn2)c1 (stereo not drawn) [Example 14]	-3.0	–
CCC(C)(C)c1ccc(OCC(=O)Nc2ccc(Oc3ccc(C(C)(C)CC)cc3C(C)(C)CC)c(C(=O)NC3=NN(c4c(Cl)cc(Cl)cc4Cl)C(=O)C3n3cccn3)c2)c(C(C)(C)CC)c1 (stereo not drawn) [Example 15]	-3.0	–
CCCCCCCCCCCCC(Oc1ccc(C)cc1C(C)(C)CC(C)(C)C)C(=O)NC1=NN(c2c(Cl)cc(Cl)cc2Cl)C(=O)C1n1cccn1 (stereo not drawn) [Example 16]	-2.6	6.5
CCCCCCCCCCCCC(Oc1ccc(C(C)(C)CC(C)(C)C)cc1)C(=O)NC1=NN(c2c(Cl)cc(Cl)cc2Cl)C(=O)C1n1cccn1 (stereo not drawn) [Example 17]	-2.6	6.5
